Our source for the IC50 values is patent US11014941B2, “Pyrrolopyrimidine derivatives useful as inhibitors of influenza virus replication” (priority 2017, dated 2021).

Influenza PB2, sequence (P03428 whole entry, looked up): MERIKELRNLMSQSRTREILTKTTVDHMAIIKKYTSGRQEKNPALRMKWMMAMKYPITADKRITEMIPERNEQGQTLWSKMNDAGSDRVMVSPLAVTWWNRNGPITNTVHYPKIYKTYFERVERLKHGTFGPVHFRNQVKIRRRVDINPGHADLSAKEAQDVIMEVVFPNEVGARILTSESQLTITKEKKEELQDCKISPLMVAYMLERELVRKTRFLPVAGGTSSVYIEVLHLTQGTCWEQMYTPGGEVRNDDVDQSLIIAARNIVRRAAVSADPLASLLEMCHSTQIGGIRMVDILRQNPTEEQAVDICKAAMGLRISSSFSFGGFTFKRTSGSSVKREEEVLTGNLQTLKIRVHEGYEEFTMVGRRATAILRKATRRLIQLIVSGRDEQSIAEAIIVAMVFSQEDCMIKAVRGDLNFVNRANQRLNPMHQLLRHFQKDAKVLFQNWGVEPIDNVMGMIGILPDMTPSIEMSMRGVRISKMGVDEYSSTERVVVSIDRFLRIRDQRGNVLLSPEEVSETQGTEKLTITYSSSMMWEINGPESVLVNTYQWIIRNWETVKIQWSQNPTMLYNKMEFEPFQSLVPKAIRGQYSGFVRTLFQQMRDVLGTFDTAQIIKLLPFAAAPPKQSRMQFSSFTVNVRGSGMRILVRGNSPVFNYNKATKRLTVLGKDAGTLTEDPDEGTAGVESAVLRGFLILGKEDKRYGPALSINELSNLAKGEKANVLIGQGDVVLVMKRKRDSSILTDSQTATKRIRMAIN

This experiment has as its target Influenza PB2 (Influenza A virus, UniProt P03428). The experiment is described as follows: biochemical. The experiment is classed as binding. Conditions: read-out: Influenza PB2 affinity, IC50.
With `CN(C)C(=O)N[C@@H]1CCC[C@H](n2ccc3cnc(-c4c[nH]c5ncc(F)cc45)nc32)C1` [Compound B56], the concentration for half-maximal inhibition (IC50) (commonly the concentration needed to halve the response being measured) is 10 to 100 µM. Then `CNC(=O)NC1CCCC(n2ccc3cnc(-c4c[nH]c5ncc(F)cc45)nc32)C1` (centres unmarked) [Compound B57], with 10 to 100 µM; and `CC(=O)N1CCC(Cn2cc(F)c3cnc(-c4c[nH]c5ncc(F)cc45)nc32)CC1` [Compound B58], with 10 to 100 µM; and `CN(C)C(=O)N[C@H]1CCC[C@H](n2ccc3cnc(-c4c[nH]c5ncc(F)cc45)nc32)C1` [Compound B59], with 10 to 100 µM. For `Fc1cnc2[nH]cc(-c3ncc4c(F)cn(CC5CCCNC5)c4n3)c2c1` (centres unmarked) [Compound B60] the value was 10 to 100 µM.

For `CNC(=O)N1CCCC(Cn2cc(F)c3cnc(-c4c[nH]c5ncc(F)cc45)nc32)C1` (centres unmarked) [Compound B61], the IC50 is 1 to 10 µM. For `CNC(=O)N1CCC(Cn2cc(F)c3cnc(-c4c[nH]c5ncc(F)cc45)nc32)CC1` [Compound B62] the value was over 100 µM. For `CN(C)C(=O)N1CCC(Cn2cc(F)c3cnc(-c4c[nH]c5ncc(F)cc45)nc32)CC1` [Compound B63] the value was 10 to 100 µM; for `CNC(=O)N[C@@H]1CCC[C@@H](n2ccc3cnc(-c4c[nH]c5ncc(F)cc45)nc32)C1` [Compound B65], 1 to 10 µM; for `COC(=O)[C@]1(C)CCCC[C@H]1n1cc(Cl)c2cnc(-c3c[nH]c4ncc(F)cc34)nc21` [Compound B66], 10 to 100 µM. Then `COC(=O)[C@@]1(C)CCCC[C@@H]1n1ccc2cnc(-c3c[nH]c4ncc(F)cc34)nc21` [Compound B67], with 10 to 100 µM. `CNC(=O)N[C@H]1CC[C@@H](n2ccc3cnc(-c4c[nH]c5ncc(F)cc45)nc32)CC1` [Compound B68]: the IC50 lay within 1 to 10 µM. Regarding `N[C@H]1CC[C@@H](n2ccc3cnc(-c4c[nH]c5ncc(F)cc45)nc32)CC1` [Compound B69], the half-inhibitory concentration (IC50) lay within 10 to 100 µM.

Regarding `CN(C)C(=O)N[C@H]1CC[C@@H](n2ccc3cnc(-c4c[nH]c5ncc(F)cc45)nc32)CC1` [Compound B70], the IC50 is 10 to 100 µM. Then `C[C@]1(C(=O)O)CCCC[C@@H]1n1ccc2cnc(-c3c[nH]c4ncc(F)cc34)nc21` [Compound B71], with under 1 µM; and `C[C@@]1(C(=O)O)CCCC[C@H]1n1cc(Cl)c2cnc(-c3c[nH]c4ncc(F)cc34)nc21` [Compound B72], with under 1 µM. Then `COC(=O)[C@]1(C)CCCC[C@H]1n1cc(C(F)(F)F)c2cnc(-c3c[nH]c4ncc(F)cc34)nc21` [Compound B73], with 10 to 100 µM; and `C[C@@]1(C(=O)O)CCCC[C@H]1n1cc(C(F)(F)F)c2cnc(-c3c[nH]c4ncc(F)cc34)nc21` [Compound B74], with under 1 µM; and `CN(C)C(=O)N1CCCC(Cn2cc(F)c3cnc(-c4c[nH]c5ncc(F)cc45)nc32)C1` (centres unmarked) [Compound B75], with 10 to 100 µM. For the molecule `Fc1cnc2[nH]cc(-c3ncc4c(F)cn(CC5CCCCN5)c4n3)c2c1` (centres unmarked) [Compound B76], the IC50 was 10 to 100 µM. Then `CNC(=O)n1cc(-c2ncc3c(F)cn(CC4CCCCN4)c3n2)c2cc(F)cnc21` (centres unmarked) [Compound B77], with 10 to 100 µM. Then `CC(C)(C)OC(=O)N1CCC(Cn2cc(F)c3cnc(-c4c[nH]c5ncc(F)cc45)nc32)CC1` [Compound B78], with over 100 µM. Then `CNC(=O)N[C@H]1CC[C@H](n2ccc3cnc(-c4c[nH]c5ncc(F)cc45)nc32)CC1` [Compound B79], with over 100 µM; and `CN(C)C(=O)N[C@H]1CC[C@H](n2ccc3cnc(-c4c[nH]c5ncc(F)cc45)nc32)CC1` [Compound B80], with over 100 µM; and `COC(=O)[C@@]1(C)CCCC[C@H]1n1cc(Cl)c2cnc(-c3c[nH]c4ncc(F)cc34)nc21` [Compound B81], with over 100 µM. For `CNC(=O)[C@]1(C)CCCC[C@H]1n1cc(Cl)c2cnc(-c3c[nH]c4ncc(F)cc34)nc21` [Compound B82], the IC50 lay in the range of 10 to 100 µM. On to `C[C@@]1(C(=O)O)CCCC[C@@H]1n1cc(Cl)c2cnc(-c3c[nH]c4ncc(F)cc34)nc21` [Compound B83], for which the IC50 lay within 1 to 10 µM. For `CC(C)(C)C(C(=O)O)n1ccc2cnc(-c3c[nH]c4ncc(F)cc34)nc21` (centres unmarked) [Compound B84] the value was 1 to 10 µM. On to `CNC(=O)N1CCCCC1Cn1cc(F)c2cnc(-c3c[nH]c4ncc(F)cc34)nc21` (centres unmarked) [Compound B85], for which the half-maximal inhibitory concentration (IC50) was in the range of 1 to 10 µM. Then `CN(C)C(=O)N1CCCCC1Cn1cc(F)c2cnc(-c3c[nH]c4ncc(F)cc34)nc21` (centres unmarked) [Compound B86], with 1 to 10 µM; and `O=C(O)[C@@H]1CCCC[C@H]1n1cc(F)c2cnc(-c3c[nH]c4ncc(Cl)cc34)nc21` [Compound B87], with under 1 µM; and `CCOC(=O)[C@]1(C)CCCC[C@H]1n1cc(F)c2cnc(-c3c[nH]c4ncc(Cl)cc34)nc21` [Compound B88], with over 100 µM. Then `C[C@@]1(C(=O)O)CCCC[C@H]1n1cc(F)c2cnc(-c3c[nH]c4ncc(F)cc34)nc21` [Compound B89], with under 1 µM; and `CCOC(=O)[C@]1(C)CCCC[C@H]1n1cc(F)c2cnc(-c3c[nH]c4ncc(F)cc34)nc21` [Compound B90], with over 100 µM; and `C[C@@]1(C(=O)O)CCCC[C@H]1n1cc(F)c2cnc(-c3c[nH]c4ncc(Cl)cc34)nc21` [Compound B91], with under 1 µM. Then `CNC(=O)[C@]1(C)CCCC[C@H]1n1cc(F)c2cnc(-c3c[nH]c4ncc(Cl)cc34)nc21` [Compound B92], with 10 to 100 µM; and `CNC(=O)[C@@H]1CCCCC1n1cc(F)c2cnc(-c3c[nH]c4ncc(Cl)cc34)nc21` (some centres unmarked) [Compound B94], with 10 to 100 µM; and `O=C(N[C@H]1CCC[C@@H](n2cc(F)c3cnc(-c4c[nH]c5ncc(Cl)cc45)nc32)C1)c1ccccn1` [Compound B96], with over 100 µM. For `CCC(C)(C(=O)NCC(F)(F)F)n1ccc2cnc(-c3c[nH]c4ncccc34)nc21` (centres unmarked) [Compound B97], the IC50 was over 100 µM.

Turning to `CCOC(=O)C1=CCCCC1n1cc(F)c2cnc(-c3c[nH]c4ncc(Cl)cc34)nc21` (centres unmarked) [Compound B98], the 50% inhibitory concentration (IC50) was over 100 µM. Then `O=C(O)C1=CCCCC1n1cc(F)c2cnc(-c3c[nH]c4ncc(Cl)cc34)nc21` (centres unmarked) [Compound B99], with under 1 µM; and `CCOCc1ccc(C(=O)N[C@H]2CCC[C@@H](n3cc(F)c4cnc(-c5c[nH]c6ncc(Cl)cc56)nc43)C2)nc1` [Compound B101], with over 100 µM; and `O=C(N[C@H]1CCC[C@@H](n2cc(F)c3cnc(-c4c[nH]c5ncc(Cl)cc45)nc32)C1)N1CCc2ccccc21` [Compound B102], with over 100 µM. Then `O=C(O)C1=C(n2cc(F)c3cnc(-c4c[nH]c5ncc(Cl)cc45)nc32)CCCC1` [Compound B103], with under 1 µM. Then `O=C(O)[C@H]1C2CCC(CC2)C1n1ccc2cnc(-c3c[nH]c4ncc(F)cc34)nc21` (some centres unmarked) [Compound B120], with under 1 µM. As to `CCOC(=O)[C@H]1C2CCC(CC2)[C@@H]1n1ccc2cnc(-c3c[nH]c4ncc(F)cc34)nc21` [Compound B121], the IC50 fell in the range of 10 to 100 µM. Then `O=C(O)[C@H]1C2CCC(CC2)C1n1ccc2cnc(-c3c[nH]c4ncc(F)cc34)nc21` (some centres unmarked) [Compound B122], with 1 to 10 µM.

`O=C(O)[C@H]1C2CCC(CC2)[C@@H]1n1ccc2cnc(-c3c[nH]c4ncc(F)cc34)nc21` [Compound B123]: the half-maximal inhibitory concentration (IC50) fell in the range of 1 to 10 µM. Then `O=C(O)[C@H]1C2CCC(CC2)[C@@H]1n1ccc2cnc(-c3c[nH]c4ncc(Cl)cc34)nc21` [Compound B124], with 1 to 10 µM; and `CCOC(=O)[C@H]1C2CCC(CC2)[C@@H]1n1cc(Cl)c2cnc(-c3cn(S(=O)(=O)c4ccc(C)cc4)c4ncc(F)cc34)nc21` [Compound B125], with over 100 µM; and `CCOC(=O)[C@H]1C2CCC(CC2)[C@@H]1n1cc(Cl)c2cnc(-c3c[nH]c4ncc(F)cc34)nc21` [Compound B126], with over 100 µM. For `O=C(O)[C@H]1C2CCC(CC2)[C@@H]1n1cc(Cl)c2cnc(-c3c[nH]c4ncc(F)cc34)nc21` [Compound B127] the value was under 1 µM. Then `CCOC(=O)[C@H]1C2CCC(CC2)[C@@H]1n1ccc2cnc(-c3c[nH]c4ncc(Cl)cc34)nc21` [Compound B128], with 10 to 100 µM; and `CCOC(=O)[C@H]1C2CCC(CC2)[C@@H]1n1cc(F)c2cnc(-c3c[nH]c4ncc(F)cc34)nc21` [Compound B129], with 10 to 100 µM; and `O=C(O)[C@H]1C2CCC(CC2)[C@@H]1n1cc(Cl)c2cnc(-c3c[nH]c4ncc(Cl)cc34)nc21` [Compound B130], with 1 to 10 µM. As to `O=C(O)[C@H]1C2CCC(CC2)[C@@H]1n1cc(F)c2cnc(-c3c[nH]c4ncc(F)cc34)nc21` [Compound B131], the concentration for half-maximal inhibition (IC50) was under 1 µM. Then `CCOC(=O)[C@H]1C2CCC(CC2)[C@@H]1n1cc(F)c2cnc(-c3c[nH]c4ncc(Cl)cc34)nc21` [Compound B134], with over 100 µM. For `O=C(O)[C@H]1C2CCC(CC2)[C@@H]1n1cc(F)c2cnc(-c3c[nH]c4ncc(Cl)cc34)nc21` [Compound B135] the value was under 1 µM; for `O=C(O)[C@@H]1C2CCC(CC2)C1n1cc(Cl)c2cnc(-c3c[nH]c4ncc(F)cc34)nc21` (some centres unmarked) [Compound B138], under 1 µM.

With `O=C(O)[C@@H]1C2CCC(CC2)C1n1cc(F)c2cnc(-c3c[nH]c4ncc(F)cc34)nc21` (some centres unmarked) [Compound B139], the concentration for half-maximal inhibition (IC50) lay within 1 to 10 µM. Then `O=C(O)[C@H]1C2CCC(CC2)[C@@H]1n1cc(Cl)c2cnc(-c3c[nH]c4ncccc34)nc21` [Compound B140], with under 1 µM; and `CNC(=O)[C@H]1C2CCC(CC2)[C@@H]1n1cc(Cl)c2cnc(-c3c[nH]c4ncc(F)cc34)nc21` [Compound B141], with 1 to 10 µM; and `O=C(O)[C@H]1C2CCC(CC2)[C@@H]1n1cc(-c2cccnc2)c2cnc(-c3c[nH]c4ncc(F)cc34)nc21` [Compound B142], with under 1 µM.

On to `O=C(O)[C@@H]1C2CCC(CC2)[C@H]1n1cc(-c2cccc(O)c2)c2cnc(-c3c[nH]c4ncc(F)cc34)nc21` [Compound B145], for which the IC50 is under 1 µM. Consider `CNC(=O)CNC(=O)[C@H]1C2CCC(CC2)[C@@H]1n1cc(Cl)c2cnc(-c3c[nH]c4ncc(F)cc34)nc21` [Compound B146], for which the IC50 lay in the range of 1 to 10 µM.
